A short description of the first data set: in vitro. As to conditions: human, hela cells, % viability.
With `COc1ccc(OC(C)C(=O)Nc2ccc(S(N)(=O)=O)cc2)cc1` (stereo not drawn) [CBK263646], the viability at 28.5 h, 10 µM turned out to be 96%.

As for `O=C(O)Cn1c2ccccc2c2nc3ccccc3nc21` [CBK263649], the viability at 28.5 h, 10 µM is 81.1%.

Consider `O=C(COc1ccccc1Cl)Nc1cccc(NC(=O)c2cccc(Cl)c2)c1` [CBK263651], for which the viability at 28.5 h, 10 µM was found to be 106%.

Regarding `O=[N+]([O-])c1ccc(CN2CCN(Cc3cc(Br)ccc3O)CC2)cc1` [CBK263652G], the viability at 28.5 h, 10 µM was found to be 88.9%.

For the compound `COc1ccc(Oc2coc3c(CN(C)C)c(O)ccc3c2=O)cc1` [CBK263653], the viability at 28.5 h, 10 µM is 95.7%.

For `CONc1nc(NC(C)(C)C)nc(OCC#N)n1` [CBK263655], the viability at 28.5 h, 10 µM came out at 85.9%.

As to `CCOc1ccccc1NC(=O)CC1Sc2ccc(C(F)(F)F)cc2NC1=O` (stereo not drawn) [CBK263659], the viability at 28.5 h, 10 µM stood at 95.6%.

Take `O=C1C2C3C=CC(C3)C2C(=O)N1CCN1CCN(S(=O)(=O)/C=C/c2ccccc2)CC1` (stereo not drawn) [CBK263663]: the viability at 28.5 h, 10 µM was determined as 88.4%.

In the case of `Cc1ccc(C2CC(=O)C(=CNCCN3CCN(C(=S)Nc4ccccc4)CC3)C(=O)C2)cc1` (stereo not drawn) [CBK263665], the viability at 28.5 h, 10 µM is 96.3%.

Take `CC1CCc2c(sc(NC(=O)CCN3C(=O)c4ccccc4C3=O)c2C(N)=O)C1` (stereo not drawn) [CBK263667]: the viability at 28.5 h, 10 µM is 94.4%.

Take `O=[N+]([O-])c1cccc(S(=O)(=O)NCc2ccccn2)c1` [CBK263669]: the viability at 28.5 h, 10 µM is 98.4%.

As to `Cc1ccc(NC(=O)C2C3C=CC(O3)C2C(=O)O)cc1` (stereo not drawn) [CBK263670], the viability at 28.5 h, 10 µM came out at 91.4%.

As for `O=C1CC(c2ccc(Cl)cc2)CC(=O)C1=CNCCN1CCN(C(=O)Nc2ccccc2)CC1` (stereo not drawn) [CBK263671], the viability at 28.5 h, 10 µM was determined as 95.3%.

As for `c1ccc(CCNc2nc(-c3cccnc3)nc3ccccc23)cc1` [CBK263672], the viability at 28.5 h, 10 µM was 105%.

For `O=C(O)C1C2CCC(O2)C1C(=O)NCc1ccco1` (stereo not drawn) [CBK263675], the viability at 28.5 h, 10 µM worked out at 96.8%.

As for `CCc1cccc(C)c1NC(=O)C1C2CCC(O2)C1C(=O)O` (stereo not drawn) [CBK263676], the viability at 28.5 h, 10 µM was found to be 88.1%.

Turning to `COC(=O)c1c(NC(=O)C2CC=CCC2C(=O)O)sc2c1CCC(c1ccccc1)C2` (stereo not drawn) [CBK263683], the viability at 28.5 h, 10 µM amounted to 94.8%.

On to `COc1ccc(NC(=O)C2C3CCC(C3)C2C(=O)O)cc1OC` (stereo not drawn) [CBK263684], for which the viability at 28.5 h, 10 µM came out at 95.3%.

On to `Cc1sc(NC(=O)C2C3C=CC(C3)C2C(=O)O)c(C(N)=O)c1C` (stereo not drawn) [CBK263685], for which the viability at 28.5 h, 10 µM was 87.6%.

As for `COc1ccc([N+](=O)[O-])cc1NC(=O)C1C2CCC(C2=C(C)C)C1C(=O)O` (stereo not drawn) [CBK263686], the viability at 28.5 h, 10 µM came out at 93.2%.

With `O=C(/C=C/c1ccccc1)NC(=S)Nc1ccc2oc(-c3ccncc3)nc2c1` [CBK263687], the viability at 28.5 h, 10 µM worked out at 93.8%.

With `O=C(O)CC1S\C(=N/N=C\C=C/c2ccccc2)N(c2ccc(O)cc2)C1=O` (stereo not drawn) [CBK263688], the viability at 28.5 h, 10 µM came to 93%.

Regarding `CCN1CCN(Cc2c(O)ccc3c(=O)c(-c4ccccc4OC)c(C(F)(F)F)oc23)CC1` [CBK263692], the viability at 28.5 h, 10 µM worked out at 87.6%.

As to `O=C(NC(=S)Nc1sc2c(c1C(=O)O)CCCC2)c1ccccc1` [CBK263695], the viability at 28.5 h, 10 µM worked out at 98.1%.

Turning to `C/C(=N\N=C1\N=C(O)C(CC(=O)NCc2ccccc2)S1)c1ccco1` (stereo not drawn) [CBK263698], the viability at 28.5 h, 10 µM came to 89.9%.

Regarding `CCN1CCN(Cc2c(C)nc3ccc(C)cc3c2O)CC1` [CBK263699], the viability at 28.5 h, 10 µM stood at 89.8%.

On to `O=C(NCc1ccco1)/C(=C\c1ccccc1)NC(=O)c1ccc(Br)cc1` [CBK263701], for which the viability at 28.5 h, 10 µM was found to be 87.7%.

`O=C(CC1(O)C(=O)Nc2ccccc21)CC1(O)C(=O)Nc2ccccc21` (stereo not drawn) [CBK263705]: the viability at 28.5 h, 10 µM was found to be 93.1%.

In the case of `CN1CCc2c(sc3nc(SCc4ccc(Cl)c(Cl)c4)n(-c4ccccc4)c(=O)c23)C1` [CBK263706], the viability at 28.5 h, 10 µM was determined as 94.2%.

Consider `O=C(Nc1cccc(C(=O)O)c1)/C(=C\c1ccco1)NC(=O)c1ccc(Br)cc1` [CBK263707], for which the viability at 28.5 h, 10 µM worked out at 91.3%.

Take `COc1ccc(/C=N/NC(=O)c2cc[nH]n2)cc1COc1ccc(Cl)cc1Cl` [CBK263708]: the viability at 28.5 h, 10 µM stood at 90.9%.

In the case of `O=C(CC1S\C(=N/N=C/C=C/c2ccccc2)N=C1O)Nc1ccc(C(=O)O)cc1` (stereo not drawn) [CBK263711], the viability at 28.5 h, 10 µM was determined as 101%.

As for `O=C(CSc1cc(Cl)ccc1Cl)Nc1cccc(Cl)c1` [CBK263712], the viability at 28.5 h, 10 µM is 113%.

In the case of `COc1ccc(CSc2nc3sc4c(c3c(=O)n2Cc2ccccc2)CCN(Cc2ccccc2)C4)cc1` [CBK263714], the viability at 28.5 h, 10 µM came out at 85.1%.

As for `O=C(Nc1ccc(S(=O)(=O)Nc2ncccn2)cc1)c1cc([N+](=O)[O-])ccc1Cl` [CBK263717], the viability at 28.5 h, 10 µM was found to be 89.9%.

With `O=C(O)CNC(=O)/C(=C\c1ccc(F)cc1)NC(=O)c1ccco1` [CBK263718], the viability at 28.5 h, 10 µM amounted to 96.4%.

On to `O=C(O)COc1ccc(NC(=O)c2ccc3c(c2)C(=O)N(CC2CCCO2)C3=O)cc1` (stereo not drawn) [CBK263719], for which the viability at 28.5 h, 10 µM came out at 92.5%.

With `COC(=O)C1=C(C)N(CCc2ccc(OC)c(OC)c2)C(=O)/C1=C\c1ccc(O)cc1` [CBK263722], the viability at 28.5 h, 10 µM came to 89.6%.

As to `O=C(O)CC1S/C(=N/N=C2/C(=O)Nc3ccccc32)N(c2ccc(O)cc2)C1=O` (stereo not drawn) [CBK263723], the viability at 28.5 h, 10 µM worked out at 93%.

For the compound `Nc1nc(SCc2ccc(Cl)cc2)nc2sc3c(c12)CCN(Cc1ccccc1)C3` [CBK263724], the viability at 28.5 h, 10 µM was found to be 88.1%.

Take `O=C(COc1ccccc1)C(C(=O)c1ccccc1)=C1Nc2ccccc2N1` [CBK263725]: the viability at 28.5 h, 10 µM turned out to be 97.8%.

Regarding `CCC1CCCCN1Cc1c(O)ccc2c(=O)c(Oc3ccc(OC)cc3)c(C(F)(F)F)oc12` (stereo not drawn) [CBK263727], the viability at 28.5 h, 10 µM is 98.8%.

Consider `CCN(CC)CCSc1nc2sc3c(c2c(=O)n1-c1ccccc1)CC(C)(C)OC3` [CBK263728], for which the viability at 28.5 h, 10 µM was found to be 96.6%.

On to `CC(C)(C)OC(=O)COc1cc2oc(=O)cc(-c3ccccc3)c2cc1Cl` [CBK263729], for which the viability at 28.5 h, 10 µM is 87.6%.

For `COc1ccccc1C/C(N)=N/OC(=O)COc1ccc2ccccc2c1` [CBK263730], the viability at 28.5 h, 10 µM came to 89.7%.

Turning to `Cc1ccc(/C=N/N=C2/N=C(O)C(CC(=O)Nc3ccccc3C(F)(F)F)S2)o1` (stereo not drawn) [CBK263731], the viability at 28.5 h, 10 µM was 104%.

`COc1ccc(Nc2nnc(-c3ccc(C(=O)NCCO)cc3)c3ccccc23)cc1` [CBK263735]: the viability at 28.5 h, 10 µM came out at 90.5%.

Regarding `O=C(Nc1ccc(S(=O)(=O)Nc2ncccn2)cc1)c1ccc(Cl)c([N+](=O)[O-])c1` [CBK263739], the viability at 28.5 h, 10 µM amounted to 101%.

As for `CC(C)N1CCc2c(sc3nc(SCc4ccc(Cl)cc4)n(Cc4ccccc4)c(=O)c23)C1` [CBK263745], the viability at 28.5 h, 10 µM is 84.4%.

Regarding `O=C(Nc1cccc(C(=O)O)c1)/C(=C\c1ccc2c(c1)OCO2)NC(=O)c1ccccc1Cl` [CBK263746], the viability at 28.5 h, 10 µM worked out at 96.4%.

Take `O=C(O)COc1ccc2c(=O)c(Oc3ccccc3Br)c(C(F)(F)F)oc2c1` [CBK263747]: the viability at 28.5 h, 10 µM was found to be 101%.

Turning to `COc1ccccc1NC(=O)CC1S/C(=N\N=C2/CCCc3ccccc32)N=C1O` (stereo not drawn) [CBK263748], the viability at 28.5 h, 10 µM stood at 102%.

The data set is the same for the next values; noted with them: human, hela cells, % viability, bulk resorufin, single well.
On to `COc1ccc(O)c(CN2CCN(Cc3ccc(Cl)cc3)CC2)c1` [CBK263660], for which the viability at 28.5 h, 10 µM worked out at 110%.

Consider `CCc1ccc(CN2CCN(Cc3cc(Br)ccc3O)CC2)cc1` [CBK263666], for which the viability at 28.5 h, 10 µM stood at 96.5%.

The values are drawn from publication PMC12040169 (PLOS Biology, 2025).
